Source: paper PMC4491109, “Synthesis and anticonvulsant activity of new N-phenyl-2-(4-phenylpiperazin-1-yl)acetamide derivatives” (Medicinal Chemistry Research, 2015)
Like-named read-outs stand apart in the source and are kept apart here.

Key:
[1] = tested on: maximal electroshock (MES) seizures; assay: MES test after oral administration in rats (screen and quantification); assay type: in vivo; details: for ED50: Rattus norvegicus, po, at TPE, 95 % confidence limits in parentheses; for PI (TD50/ED50), MES: protective index for MES
Method: This screen discloses the time of onset, the approximate time of peak effect (TPE) and the duration of anticonvulsant activity or neurotoxicity.
The quantitative evaluation of the MES median effective dose (ED50) and toxic dose (TD50) was performed at previously estimated TPE—2 h.
(§1) Phase I of the in vivo studies involved three tests: MES, scPTZ and rotarod test for NT. Male albino mice (CF#1 strain, weighing 18–25 g) and male albino rats (Sprague–Dawley) were used as experimental animals. The animals were housed in metabolic cages and allowed free access to food and water. The compounds were injected intraperitoneally to mice as a suspension in 0.5 % methylcellulose/water mixture at a dose level 30, 100 or 300 mg/kg with anticonvulsant activity and neurotoxicity assessment at 0.5 and 4 h after administration. Promising derivatives from phase I underwent phase VIa in which they were administrated orally into rats at a fixed dose of 30 mg/kg for both MES and the rotarod toxicity determination at five pretreatment times: 0.25, 0.5, 1, 2, 4 h. Groups of eight mice or four rats are employed.
In the MES screen, an electrical stimulus of 0.2 s in duration (50 mA in mice and 150 mA in rats) is delivered via corneal electrodes primed with an electrolyte solution containing an anesthetic agent. The endpoint is the tonic extension of the hind limbs. […] Mice not displaying hind limb tonic extension are considered to be protected from seizures.

mice (rotarod test) = assay: Neurotoxicity screening (NT), rotarod test, i.p. administration in mice; assay type: in vivo
Method: (§2) Considering the aforementioned facts, the profile of anticonvulsant activity of final compounds 3–24 was established in the MES and scPTZ tests, after intraperitoneal (i.p.) injection in mice at doses of 30, 100 and 300 mg/kg. An observation was carried out at two different time intervals—0.5 and 4 h. Furthermore, in addition to the primary anticonvulsant screening, the acute neurological toxicity (NT) was determined in mice by the rotarod test.
as §1
The neurological toxicity test (NT) induced by a compound was detected in mice or rats using standardized rotarod test (Dunham and Miya, [1957]). Untreated control mice or rats, when placed on the rod, can maintained their equilibrium for a prolonged time period.

[2] = tested on: pentylenetetrazole-induced seizures; assay: Subcutaneous pentylenetetrazole (scPTZ) test, i.p. administration in mice; assay type: in vivo; details: Mus musculus, ip, doses of 30, 100 or 300 mg/kg
Method: as §2
(§3) Compounds 3–24 were pharmacologically preevaluated within the Antiepileptic Drug Development (ADD) Program in Epilepsy Branch, Neurological Disorders Program, National Institute of the Neurological and Communicative Disorders and Stroke (NIH/NINDS), Rockville, MD, USA, by using procedures described elsewhere (Krall et al., [1978]; Kupferberg, [1989]).
as §1
(§4) The scPTZ test utilizes a dose of pentylenetetrazole (85 mg/kg in mice) that produces clonic seizures lasting for a period of at least 5 s in 97 % (CD97) of animals tested. PTZ is administered 0.5 and 4 h after injections of tested compounds, and observation is carried out for 30 min. In the control groups, the first episode of clonic convulsions is observed between 6 and 15 min of observation. The absence of clonic convulsions in the observed time period of […] is interpreted as the compound’s ability to protect against PTZ-induced seizures.

[3] = tested on: maximal electroshock (MES) seizures; assay: Maximal electroshock (MES) test, i.p. administration in mice; assay type: in vivo; details: Mus musculus, ip, doses of 30, 100 or 300 mg/kg
Method: as §2, §3, §1
In the MES screen, an electrical stimulus of 0.2 s in duration (50 mA in mice and 150 mA in rats) is delivered via corneal electrodes primed with an electrolyte solution containing an anesthetic agent. The endpoint is the tonic extension of the hind limbs. In the control groups, the procedures cause immediate hind limb tonic extension. Mice not displaying hind limb tonic extension are considered to be protected from seizures.

in vivo = details: male, Sprague-Dawley, rat, po
[4] = tested on: pentylenetetrazole-induced seizures; assay: scPTZ test after p.o. administration in rats (quantification); assay type: in vivo; details: for ED50: Rattus norvegicus, po, at TPE, 95 % confidence limits in parentheses
Method: On the basis of the preliminary data in rats, compound 20 was chosen for quantification of the pharmacological parameters (ED50 and TD50) after p.o. application. The quantitative evaluation of the MES median effective dose (ED50) and toxic dose (TD50) was performed at previously estimated TPE—2 h.
as §4

rats (rotarod test) = assay: Neurotoxicity, rotarod test after p.o. administration in rats; details: at TPE, 95 % confidence limits in parentheses
[5] = tested on: 6-Hz psychomotor seizures; assay: Psychomotor seizure test (6-Hz), i.p. in mice; assay type: in vivo; details: 100 mg/kg
Description: In the next step of pharmacological investigations, four compounds 12, 19, 20 and 24 were chosen for the evaluation of anticonvulsant activity in the psychomotor 6-Hz test (Table 4). The selection was made randomly as a part of the search of molecules providing anti-6-Hz protection among chemically diversified compounds pursued in the NIH/NINDS. It should be noticed that 6-Hz screen has been validated as a model of therapy-resistant epilepsy (Barton et al., [2001]).
The 6-Hz model is an alternative electroshock paradigm that uses low-frequency (6 Hz), long-duration (3 s) electrical stimulation. Corneal stimulation (0.2 ms duration monopolar rectangular pulses at 6-Hz for 3 s) was delivered by a constant-current device. During the stimulation, mice were manually restrained and released into the observation cage immediately after the current application. The seizures manifest in “stunned” posture associated with rearing, forelimb, automatic movements and clonus, twitching the vibrissae and Straub–tail. The duration of the seizure activity ranges from 60 to 120 s in untreated animals. At the end of the seizure, animals resume their normal exploratory behavior. The experimental end point is protection against the seizure. The animal is considered to be protected if it resumes its normal exploratory behavior within 10 s from the stimulation (Brown et al., [1953]).

[6] = tested on: 6-Hz psychomotor seizures; parameters: method as in Rogawski, 2006; details: ref Rogawski, 2006; cited from earlier work
MES seizures = tested on: MES seizures; parameters: method as in Rogawski, 2006; details: even at high doses, ref Rogawski, 2006; cited from earlier work
PTZ seizures = tested on: PTZ seizures; parameters: method as in Rogawski, 2006; details: even at high doses, ref Rogawski, 2006; cited from earlier work
[7] = 0.5 h, read-out: scPTZ, minimum dose effective in half or more animals tested, 0.5 h
[8] = 4 h, read-out: scPTZ, minimum dose effective in half or more animals tested, 4 h
[9] = 0.5 h, read-out: MES, minimum dose effective in half or more animals tested, 0.5 h
[10] = 4 h, read-out: MES, minimum dose effective in half or more animals tested, 4 h

Row | SMILES | MES, number of rats protected/number of rats tested, 0.25 h ([1]; p.o., 30 mg/kg) | MES, number of rats protected/number of rats tested, 0.5 h ([1]; p.o., 30 mg/kg) | MES, number of rats protected/number of rats tested, 1 h ([1]; p.o., 30 mg/kg) | MES, number of rats protected/number of rats tested, 2 h ([1]; p.o., 30 mg/kg, 2 h) | MES, number of rats protected/number of rats tested, 4 h ([1]; p.o., 30 mg/kg) | NT (rotarod), minimum dose neurotoxic in half or more animals tested, 0.5 h (mice (rotarod test); male, CF#1, mouse, in vivo) | minimal effective dose [2, 7] | minimal effective dose [2, 8] | minimal effective dose [3, 9] | minimal effective dose [3, 10] | ED50 [1] | PI (TD50/ED50), MES ([1]; p.o.) | TD50 at 2 h (in vivo) | ED50 [4] | also measured
1 | O=C(CN1CCN(Cc2ccccc2)CC1)Nc1cccc(C(F)(F)F)c1 [Compound 22, 2-(4-Benzylpiperazin-1-yl)-N-[3-(trifluoromethyl)phenyl]acetamide] | 1/4 | 1/4 | 1/4 | 1/4 | 1/4 | 300^33 mg/kg | > 300 mg/kg | > 300 mg/kg | 300 mg/kg | > 300 mg/kg |  |  |  |  | response comment (adverse sign observed) (mice (rotarod test); mice, i.p., 300 mg/kg): tremors
2 | Cl.O=C(CN1CCOCC1)Nc1cccc(Cl)c1 [Compound 13, N-(3-chlorophenyl)-2-morpholino-acetamide monohydrochloride] | 0/4 | 1/4 | 0/4 | 0/4 | 0/4 | 300 mg/kg | > 300 mg/kg | > 300 mg/kg | 100 mg/kg | 300 mg/kg |  |  |  |  | dose showing neurotoxicity in the rotarod test (NT) (mice (rotarod test); male, CF#1, mouse, in vivo, ip): 300 mg/kg
3 | O=C1NC(=O)C(c2ccccc2)(c2ccccc2)N1 [Phenytoin, reference compound] | 1/4 | 4/4 | 3/4 | 3/4 | 3/4 | 100 mg/kg | > 300 mg/kg | > 300 mg/kg | 30 mg/kg | 30 mg/kg | 28.1 mg/kg | >3.6 (MES) | > 100 mg/kg | > 500 mg/kg | NT (rotarod), minimum dose neurotoxic in half or more animals tested, 4 h (mice (rotarod test); male, CF#1, mouse, in vivo, 4 h): 100 mg/kg
4 | CCCC(CCC)C(=O)O [Valproic acid] |  |  |  |  |  |  |  |  |  |  |  | 1.6 |  | 646 mg/kg | TD50 NT (rotarod) (rats (rotarod test)): 784 (503–1176) mg/kg; PI (TD50/ED50), scPTZ ([4]; protective index for scPTZ): 1.2
5 | Cl.O=C(CN1CCN(c2cccc(C(F)(F)F)c2)CC1)Nc1cccc(C(F)(F)F)c1 [Compound 20, N-[3-(Trifluoromethyl)phenyl]-2-[4-[3-(trifluoromethyl)phenyl]piperazin-1-yl]acetamide monohydrochloride] | 0/4 | 1/4 | 0/4 | 2/4 | 0/4 |  | > 300 mg/kg | > 300 mg/kg | > 300 mg/kg | 100 mg/kg | 52.3 mg/kg | >9.56 (MES) | > 500 mg/kg |  | MES, % of animals protected, 2 h ([1]; p.o., 30 mg/kg, 2 h): 50%; 6-Hz, % of animals protected, 0.25 h ([5]; 0.25 h): 25%; 6-Hz, % of animals protected, 2 h ([5]; 2 h): 25%; 6-Hz, % of animals protected, 4 h ([5]; 4 h): 25%; 6-Hz, number of mice protected/number of mice tested, 0.25 h ([5]; current 32 mA, 0.25 h): 1/4; 6-Hz, number of mice protected/number of mice tested, 0.5 h ([5]; current 32 mA, 0.5 h): 0/4; 6-Hz, number of mice protected/number of mice tested, 1 h ([5]; current 32 mA, 1 h): 0/4; 6-Hz, number of mice protected/number of mice tested, 2 h ([5]; current 32 mA, 2 h): 1/4; 6-Hz, number of mice protected/number of mice tested, 4 h ([5]; current 32 mA, 4 h): 1/4
6 | CC[C@@H](C(N)=O)N1CCCC1=O [levetiracetam] |  |  |  |  |  |  |  |  |  |  |  |  |  |  | effectiveness in the 6-Hz psychomotor seizure model (in words) [6]: high effectiveness; activity against classical MES seizures (in words) (MES seizures): inactive; activity against classical PTZ seizures (in words) (PTZ seizures): inactive
